In series [1] the test system is Hep 3B2. Nature of the series: Induction of apoptosis in human Hep3B cells assessed as late apoptotic cells at 0.5 uM incubated for 48 hrs by annexin V-FITC/propidium iodide staining based flow cytometry analysis (reference value: 5.20%). Format: functional. (A flow cytometer gives signals particle by particle.)
Series [2] is described as follows: AUC (0 to t) in BALB/c male mouse at 1 mg/kg, iv measured upto 24 hrs by LC-MS/MS analysis. Format: ADME, organism-based. The conditions noted are these: in vivo.
For series [3], the target named is Platelet-derived growth factor receptor alpha (Homo sapiens) (UniProt P16234). Nature of the series: Inhibition of PDGFRalpha (unknown origin) at 1 uM relative to control.
Chain of Platelet-derived growth factor receptor alpha (Homo sapiens) (P16234 whole entry): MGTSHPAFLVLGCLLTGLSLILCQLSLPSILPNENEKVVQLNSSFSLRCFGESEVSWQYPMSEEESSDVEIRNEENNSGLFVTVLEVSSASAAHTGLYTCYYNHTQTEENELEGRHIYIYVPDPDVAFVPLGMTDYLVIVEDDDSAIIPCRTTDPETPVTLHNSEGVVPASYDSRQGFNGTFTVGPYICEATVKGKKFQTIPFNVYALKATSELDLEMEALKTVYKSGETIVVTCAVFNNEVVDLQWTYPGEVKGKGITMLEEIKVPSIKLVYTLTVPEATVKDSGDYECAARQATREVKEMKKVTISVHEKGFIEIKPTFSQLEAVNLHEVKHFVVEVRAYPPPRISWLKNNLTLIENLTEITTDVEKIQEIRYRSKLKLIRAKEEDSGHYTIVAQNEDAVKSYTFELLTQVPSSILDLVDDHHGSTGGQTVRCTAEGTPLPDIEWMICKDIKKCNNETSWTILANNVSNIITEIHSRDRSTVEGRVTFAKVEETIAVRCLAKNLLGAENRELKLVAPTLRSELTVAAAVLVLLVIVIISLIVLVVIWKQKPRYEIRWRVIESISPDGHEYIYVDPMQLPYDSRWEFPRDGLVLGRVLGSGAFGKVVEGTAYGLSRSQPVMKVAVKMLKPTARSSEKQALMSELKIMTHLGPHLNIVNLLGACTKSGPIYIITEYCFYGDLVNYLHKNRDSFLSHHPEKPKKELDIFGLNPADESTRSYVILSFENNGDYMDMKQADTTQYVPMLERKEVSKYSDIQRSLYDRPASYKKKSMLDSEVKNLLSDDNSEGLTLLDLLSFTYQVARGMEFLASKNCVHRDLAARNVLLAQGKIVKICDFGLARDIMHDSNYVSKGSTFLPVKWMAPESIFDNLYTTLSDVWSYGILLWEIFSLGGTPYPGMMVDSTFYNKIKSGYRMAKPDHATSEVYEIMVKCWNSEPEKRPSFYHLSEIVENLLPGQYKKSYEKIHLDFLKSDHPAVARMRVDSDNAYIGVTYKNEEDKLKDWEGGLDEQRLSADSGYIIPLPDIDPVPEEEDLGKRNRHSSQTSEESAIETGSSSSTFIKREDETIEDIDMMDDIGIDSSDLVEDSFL
Series [4] relates to Huh-7. Description: Induction of apoptosis in human Huh-7 cells assessed as late apoptotic cells at 1 uM incubated for 48 hrs by annexin V-FITC/propidium iodide staining based flow cytometry analysis (reference value: 5.20%). It counts as functional.
A short description of series [5]: Toxicity in male nude mouse implanted with human Huh-7 cells assessed as liver damage at 12.5 to 50 mg/kg, ip administered for 15 days. The conditions noted are these: in vivo, 360 h, dose 12.5-50 mg/kg, time 15 day. It counts as organism-based.
The nature of series [6]: Oral bioavailability in BALB/c male mouse at 10 mg/kg measured upto 24 hrs by LC-MS/MS analysis. The conditions noted are these: in vivo. It counts as ADME, organism-based.
The test system of series [7] is Hep 3B2. Description: Induction of apoptosis in human Hep3B cells assessed as viable cells at 1 uM incubated for 48 hrs by annexin V-FITC/propidium iodide staining based flow cytometry analysis (reference value: 84.91%). It counts as functional. The conditions noted are these: read-out: Activity.
Series [8] relates to Huh-7. Description: Induction of apoptosis in human Huh-7 cells assessed as early apoptotic cells at 1 uM incubated for 48 hrs by annexin V-FITC/propidium iodide staining based flow cytometry analysis (reference value: 4.59%). Format: functional.
Series [9] deals with Hep 3B2. Nature of the series: Induction of apoptosis in human Hep3B cells assessed as viable cells at 0.25 uM incubated for 48 hrs by annexin V-FITC/propidium iodide staining based flow cytometry analysis (reference value: 84.91%). It counts as functional. The conditions noted are these: read-out: Activity.
Series [10] has as its system Hep 3B2. Nature of the series: Effect on FGFR4 level in human Hep3B cells at 0.25 to 1 uM incubated for 48 hrs by Western blot analysis. Format: functional, cell-based. The conditions noted are these: dose 0.25-1 µM. For orientation: In western blotting, separated proteins are transferred to a membrane and probed.
The species named for the next series is Homo sapiens. Description: Inhibition of SRC (unknown origin) at 1 uM relative to control.
The nature of series [11]: AUC (0 to t) in BALB/c male mouse at 10 mg/kg, po measured upto 24 hrs by LC-MS/MS analysis. Format: ADME, organism-based. The conditions noted are these: in vivo.
In series [12] the test system is Hep 3B2. Nature of the series: Effect on MAPK level in human Hep3B cells at 0.25 to 1 uM incubated for 48 hrs by Western blot analysis. It counts as functional, cell-based. The conditions noted are these: dose 0.25-1 µM.
In series [13] the test system is Hep 3B2. Nature of the series: Induction of apoptosis in human Hep3B cells assessed as necrotic cells at 0.25 uM incubated for 48 hrs by annexin V-FITC/propidium iodide staining based flow cytometry analysis (reference value: 5.20%). It counts as functional.
For series [14], the system named is Hep 3B2. Nature of the series: Induction of apoptosis in human Hep3B cells assessed as necrotic cells at 1 uM incubated for 48 hrs by annexin V-FITC/propidium iodide staining based flow cytometry analysis (reference value: 5.20%). Format: functional.
The test system of series [15] is Huh-7. Description: Induction of apoptosis in human Huh-7 cells assessed as early apoptotic cells at 0.1 uM incubated for 48 hrs by annexin V-FITC/propidium iodide staining based flow cytometry analysis (reference value: 4.59%). It counts as functional.
Series [16] in a line: Toxicity in male nude mouse implanted with human Huh-7 cells assessed as spleen damage at 12.5 to 50 mg/kg, ip administered for 15 days. The conditions noted are these: in vivo, 360 h, dose 12.5-50 mg/kg, time 15 day. It counts as organism-based.
The test system of series [17] is Hep 3B2. Nature of the series: Induction of apoptosis in human Hep3B cells assessed as late apoptotic cells at 0.25 uM incubated for 48 hrs by annexin V-FITC/propidium iodide staining based flow cytometry analysis (reference value: 5.20%). Format: functional.
Series [18] has as its system Huh-7. Nature of the series: Induction of apoptosis in human Huh-7 cells assessed as viable cells at 1 uM incubated for 48 hrs by annexin V-FITC/propidium iodide staining based flow cytometry analysis (reference value: 84.91%). It counts as functional. The conditions noted are these: read-out: Activity.
Series [19] in a line: Half life in BALB/c male mouse at 10 mg/kg, po measured upto 24 hrs by LC-MS/MS analysis. It counts as ADME, organism-based. The conditions noted are these: in vivo.
Series [20] can be described thus: Toxicity in male nude mouse implanted with human Huh-7 cells assessed as lung damage at 12.5 to 50 mg/kg, ip administered for 15 days. Format: organism-based. The conditions noted are these: in vivo, 360 h, dose 12.5-50 mg/kg, time 15 day.

The values below come from ChEMBL document CHEMBL6121004, “Design, synthesis, and biological evaluation of Ponatinib-based N-Phenylpyrimidine-2-amine derivatives as novel fibroblast growth factor receptor 4 (FGFR4) selective inhibitors” (Eur J Med Chem, 2025).

The source made the active and inactive calls. The rule behind the calls is not given here. Where only a bound is given, the exact number is not on record here.

As to `C=CC(=O)Nc1cccc(C)c1Nc1ncc(C#Cc2cccc(C(=O)Nc3ccc(CN4CCN(C)CC4)c(C(F)(F)F)c3)c2)cn1`, the Activity in the series with Hep 3B2 [1] is on record as 18.41%; in the series on Huh-7 [4] it was 25.23%; in [5], “Non-toxic”; in the series on Huh-7 [8], 2.12%; in the series with Hep 3B2 [13], 5.62%; in the series with Hep 3B2 [14], 5.13%. In addition, the Activity with Huh-7 [15] is reported as 3.69%; in [16] it was “Non-toxic”; in the series on Hep 3B2 [17], 9.17%; in series [20] it was “Non-toxic”. For the same compound, the area under the curve AUC(0-t) (as a rule, the area under the concentration-time curve up to a stated or last time point) at 24 h in [2] is 241 ng·h/mL; in series [11], 318 ng·h/mL. For the same compound, the inhibition (in series [3]; in the series filed under Homo sapiens) was less than 70% throughout. For the same compound, in [6], the bioavailability (usually dose-corrected exposure relative to a reference, in per cent) was determined as 17.8%. Besides, the results for the viability at 1 µM in the series on Hep 3B2 [7] and in the series with Huh-7 [18] were 63.2% and 63%, respectively. Also, the viability at 0.25 µM in the series on Hep 3B2 [9] amounted to 80.8%. The outcome with Hep 3B2 [10] and with Hep 3B2 [12] was Active. Further, the half-life (usually the time in which the quantity being followed falls by half) in [19] is 1.4 h.
